We go through ten compounds from patent publication US20250237649A1 (priority 2021, published 2025).

Entries after “also recorded” stand apart in the source; their conditions may differ. Like-named read-outs stand apart in the source and are kept apart here. Non-standard residues stand in square brackets, D forms with d. Residues, ends and D or L forms follow the SMILES beside them. *: point of attachment. Sta = CC(C)C[C@H](N)[C@@H](O)CC(=O)O; pNA = O=[N+]([O-])c1ccc(N*)cc1; Isovaleryl = CC(C)CC(=O)*; Cbz = O=C(OCc1ccccc1)*

The test system of series [1] is M. bovis cells. Format: cell-based, Mycobacterium bovis.
The nature of series [2]: Cytotoxicity towards RAW macrophages. The note with it: mouse, read-out: TC50, cytotoxicity towards RAW macrophages. Format: cell-based. Here is the method:
(§1) Cells were seeded in plates and incubated overnight in a humidified incubator at 37° C., 5% CO2. […] After 72-hours of incubation, CellTiter-Glo® reagent (Promega) was added to plates and the relative luminescent units (RLU) were measured using a Synergy 4 plate reader (Biotek). […] Growth inhibition curves were fitted using the Levenberg-Marquardt algorithm. The IC50 was defined as the compound concentration that produced 50% of the growth inhibitory response.

The nature of series [3]: Cytotoxicity towards HepG2 hepatocytes. Format: cell-based. The note with it: human, read-out: TC50, cytotoxicity towards HepG2 hepatocytes. As to the method:
as §1

Another series deals with THP1 macrophages. Description: Cytotoxicity against THP1 macrophages. Format: cell-based.
Another series deals with Mtb in THP-1 macrophages. Nature of the series: Antitubercular activity (Mtb survival) in THP-1 macrophages. Format: cell-based, Mycobacterium tuberculosis. The conditions noted are these: for IC50: Mycobacterium tuberculosis, THP1MACROPHAGES
The source says: FIG. 18A depicts time-dependent antitubercular activity in THP-1 macrophages. FIG. 18B depicts the average of the Hill slope values corresponding to the IC50 values used to plot the mean IC50 in FIG. 18A.

For series [4], the system named is M. bovis cells. Format: cell-based, Mycobacterium bovis. The conditions noted are these: cell culture.
Series [5] concerns the target T1, purified recombinant Hip1 (Mycobacterium tuberculosis, UniProt P9WHR3).
T1 sequence (P9WHR3 31-520): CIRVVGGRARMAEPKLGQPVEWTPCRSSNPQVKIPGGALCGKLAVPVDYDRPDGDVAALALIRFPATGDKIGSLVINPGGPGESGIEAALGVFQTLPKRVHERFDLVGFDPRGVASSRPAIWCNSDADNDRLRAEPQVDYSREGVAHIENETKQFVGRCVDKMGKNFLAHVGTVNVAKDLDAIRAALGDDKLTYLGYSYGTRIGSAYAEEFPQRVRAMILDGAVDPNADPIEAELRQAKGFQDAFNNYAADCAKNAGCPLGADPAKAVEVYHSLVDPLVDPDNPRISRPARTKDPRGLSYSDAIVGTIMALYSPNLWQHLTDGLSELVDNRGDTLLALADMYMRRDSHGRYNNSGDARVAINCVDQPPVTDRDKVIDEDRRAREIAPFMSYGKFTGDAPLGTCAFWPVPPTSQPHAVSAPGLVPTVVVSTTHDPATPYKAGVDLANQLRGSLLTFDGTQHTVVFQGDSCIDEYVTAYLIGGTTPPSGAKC
The note with it: cited from earlier work.

Setting [6] is: THP-1, 24 h, read-out: IC50 Mean ± SEM.
[7] abbreviates: THP-1, 72 h, read-out: IC50 Mean ± SEM.
[8] abbreviates: THP-1, 72 h, read-out: IC50 Range.
Where [9] appears, read: THP-1 macrophages, time point 48 h, read-out: IC50 Mean ± SEM.
Where [10] appears, read: THP-1 macrophages, time point 48 h, read-out: IC50 Range.

Consider `NCCc1ccc(S(=O)(=O)F)cc1` [AEBSF], for which the “Inhibition of cleavage of UFNG1 by M. bovis cells” value (shortened to “Inhibition of cleavage of UFNG1”) in the series with M. bovis cells [1] is recorded as “most significant inhibition”.

As for `COC(=O)C(=O)[C@H](CC(C)C)NC(=O)[C@H](CCCCN)NC(=O)[C@H](Cc1ccccc1)NC(=O)OCc1ccccc1` [Cbz-Phe-Lys-Leu-CO—CO2Me], the CC50 at 72 h in series [2] and in series [3] was more than 100 µM throughout. The “Cytotoxicity against THP1 macrophages” value in the series on THP1 macrophages was “does not have significant cytotoxicity”. Besides, the IC50 is 69.7 ± 18.7 µM in the series with Mtb in THP-1 macrophages (setting [6]); 13.9 ± 4.86 µM in the series with Mtb in THP-1 macrophages (setting [7]); 8.24 to 23.6 µM in the series on Mtb in THP-1 macrophages (setting [8]); 19.6 ± 4.98 µM with Mtb in THP-1 macrophages (setting [9]); 12.7 to 29.3 µM in the series with Mtb in THP-1 macrophages (setting [10]). Also, the “Mtb survival in THP1 macrophages” value with Mtb in THP-1 macrophages is on record as “effectively reduces Mtb survival”. In the series with Mtb in THP-1 macrophages (THP-1 macrophages, time point 24 h), the “IC50 Range” value was 51.09 to 8.38 μM. Besides, the “Inhibition of cleavage of UFNG1” value with M. bovis cells [1] (FRET substrate UFNG1) is reported as “most significant inhibition”.

Consider `CC(C)C[C@H](NC(=O)[C@H](CCCCN)NC(=O)[C@H](Cc1ccccc1)NC(=O)OCc1ccccc1)C(=O)Nc1ccc([N+](=O)[O-])cc1` [Cbz-Phe-Lys-Leu-pNa] (Cbz-Phe-Lys-Leu-pNA), for which, in the series on M. bovis cells [4], the “Cleavage of substrate by M. bovis cells” value was “cleaved by M. bovis”.

As to `CC(C)C[C@H](NC(=O)[C@H]1O[C@@H]1C(=O)O)C(=O)NCCCCN=C(N)N` [E-64], the “Inhibition of cleavage of UFNG1” value in the series with M. bovis cells [1] (FRET substrate UFNG1) is on record as “do not inhibit cleavage of UFNG1 appreciably”.

In the case of `O=C(O)CN(CCN(CC(=O)O)CC(=O)O)CC(=O)O` [EDTA], the “Inhibition of cleavage of UFNG1” value in the series on M. bovis cells [1] (FRET substrate UFNG1) is reported as “do not inhibit cleavage of UFNG1 appreciably”.

For `COC(=O)C(=O)[C@H](C[C@@H]1CCNC1=O)NC(=O)[C@H](CCCCN)NC(=O)[C@H](Cc1ccccc1)NC(=O)OCc1ccccc1` [Inhibitor Compound 2, Cbz-Phe-Lys-Glnlac-CO—CO2Me], in the series with THP1 macrophages, the “Cytotoxicity against THP1 macrophages” value is given as “does not have significant cytotoxicity”. Further, the half-maximal inhibitory concentration (IC50) in the series on Mtb in THP-1 macrophages (setting [6]) was 104 ± 39.1 µM; in the series with Mtb in THP-1 macrophages (THP-1, 24 h, read-out: IC50 Range), 44.4 to 178 µM; with Mtb in THP-1 macrophages (setting [7]), 51.8 ± 14.7 µM; in the series with Mtb in THP-1 macrophages (setting [8]), 25.6 to 53.3 µM; in the series on Mtb in THP-1 macrophages (setting [9]), 58.4 ± 1.15 µM; with Mtb in THP-1 macrophages (setting [10]) it was 57.3 to 59.6 µM. The “Mtb survival in THP1 macrophages” value in the series on Mtb in THP-1 macrophages was “effectively reduces Mtb survival”. Also, the “Inhibition of cleavage of UFNG1” value in the series on M. bovis cells [1] (FRET substrate UFNG1) was “most significant inhibition”.

As for `O=S(=O)(F)Cc1ccccc1` [PMSF, phenylmethylsulfonyl fluoride], the “Inhibition of cleavage of UFNG1” value in the series with M. bovis cells [1] is “did not significantly inhibit cleavage”. In addition, the “Inhibition of Hip1 (studies have shown)” value in series [5] is recorded as “not an effective inhibitor of purified recombinant Hip1; also recorded: poor inhibitor of Hip1”.

Take `CC(C)C[C@H](NC(=O)[C@@H](NC(=O)N[C@@H](Cc1ccccc1)C(=O)O)[C@@H]1CCN=C(N)N1)C(=O)N[C@H](C=O)Cc1ccccc1` [chymostatin]: in series [5], the “Inhibition of Hip1 (studies have shown)” value is “inhibit Hip1”.

Take `CC(=O)N[C@@H](CC(C)C)C(=O)N[C@@H](CC(C)C)C(=O)N[C@H](C=O)CCCNC(=N)N` [leupeptin]: the “Inhibition of Hip1 (studies have shown)” value in series [5] is “inhibit Hip1”.

In the case of `CC(C)CC(=O)N[C@H](C(=O)N[C@H](C(=O)N[C@@H](CC(C)C)[C@@H](O)CC(=O)N[C@@H](C)C(=O)N[C@@H](CC(C)C)[C@@H](O)CC(=O)O)C(C)C)C(C)C` [pepstatin] (Isovaleryl-VV[Sta]A[Sta]-OH), the “Inhibition of cleavage of UFNG1” value in the series on M. bovis cells [1] (FRET substrate UFNG1) is given as “do not inhibit cleavage of UFNG1 appreciably”.
